Source: PMC5390467, “Novel lead structures with both Plasmodium falciparum gametocytocidal and asexual blood stage activity identified from high throughput compound screening” (Malaria Journal, 2017)

Key:
HepG2 cells = experiment: HepG2 cytotoxicity assay (AlamarBlue); format: cell-based, human
Method: (§1) Asexual parasites of P. falciparum strain NF54 were cultured as described previously. Briefly, parasites were maintained in RPMI 1640 medium containing 10% positive human serum + erythrocytes (5% haematocrit), 2.5% sodium bicarbonate and 11 µg/mL gentamicin at 37 °C with 5% CO2, 5% O2 and 90% N2. Gametocyte cultures were set up at 0.1% parasitaemia and on days 9–10 treated with 50 mM N-acetylglucosamine (NAG) to block further asexual growth. Stage III–V gametocytes were isolated by Percoll density gradient centrifugation on day 12 and returned to culture for 24 h before being used in the assay. At the time of the assay over 73% of the gametocytes were stage IV or V (Additional file 1). HepG2 cells (ATCC, cat. no. 77400) were cultured in 175-cm^2 tissue culture flasks with 30 ml growth medium at 37 °C in a 5% CO2 and 5% O2 humidified atmosphere. Growth medium was made with Dulbecco’s Modified Eagle Medium with 10% fetal bovine serum (FBS). Growth medium was replaced every other day and cells were passaged at 75% confluence.
Drug activity on HepG2 was tested using an AlamarBlue assay as previously described. Briefly, 5 μL/well of HepG2 cells were dispensed with a seeding density of 1000 cells/well using the Multidrop Combi. 23 nL compound was transferred using the NX-TR Pintool. After 72 h incubation under the standard culture condition, 5 μL/well of 2X AlamarBlue dye was added to the cells, the plates were incubated for 2 h at 37 °C with 5% CO2 and then were read in a fluorescence detection mode (Ex = 525 nm, Em = 598 nm) on a ViewLux plate reader.

[1] = tested on: P. falciparum NF54 gametocytes; experiment: gametocyte viability assay (AlamarBlue); format: cell-based, Plasmodium falciparum; conditions: for IC50: P. falciparum NF54 stage III-V gametocytes, 72 h, AlamarBlue, mean ± SD, n = 3; for Asexual/Gametocyte: ratio of asexual IC50 to gametocyte IC50
Method: as §1
Compounds from the Sytravon library (a retired Pharma screening collection that contains a diversity of novel small molecules, with an emphasis on medicinal chemistry-tractable scaffolds) were obtained as powder samples and dissolved in DMSO as […] stock solutions. Compound screening experiments were performed as previously described. In the primary screen, two concentrations for each compound were tested. No technical and biological replicates were involved. In the follow-up confirmation studies, three biological replicates were tested for each compound in both parasite assays. The positive control was 46 µM of Torin 2 and negative control was DMSO. Briefly, 2.5 μL/well incomplete medium was dispensed into each well of 1536-well plates using the Multidrop Combi followed by 23 nL compound transferring using the NX-TR Pintool (WAKO Scientific Solutions, San Diego, CA). Then, 2.5 μL/well of gametocytes was dispensed with a seeding density of 20,000 cells/well using the Multidrop Combi. The assay plates were incubated for 72 h at 37 °C with 5% CO2. After addition of 5 μL/well of 2X AlamarBlue dye (Life Technologies, cat. no. DAL1100), the plates were incubated for 24 h at 37 °C with 5% CO2 and then were read in a fluorescence detection mode (Ex = 525 nm, Em = 598 nm) on a ViewLux plate reader (PerkinElmer).

468 human kinases = experiment: human kinase profiling (Kinome scan, DiscoverX), whole panel; format: binding
[2] = tested on: P. falciparum NF54 asexual parasites; experiment: asexual parasite growth inhibition assay (SYBR Green); format: cell-based, Plasmodium falciparum; conditions: 72 h, mean ± SD, n = 3
Method: as §1
Drug activity on asexual stage parasites was tested using a SYBR Green assay as described previously. Briefly, 2.5 μL/well complete culture medium was dispensed into each well of 1536-well plates using the Multidrop Combi followed by 23 nL compound transferring using the NX-TR Pintool. Parasites were diluted to 0.5% parasitaemia in complete culture medium with 2% haematocrit and drugs diluted in DMSO (≤0.5%). The pre-diluted parasites were dispensed into a 1536-well plate (2.5 μL/well). After 72 h incubation under the standard culture conditions, 5 μL/well of lysis buffer containing SYBR Green I was added to the parasite culture and incubated for 30 min at room temperature. The fluorescence of each well was measured in a fluorescence detection mode (Ex = 490 nm, Em = 520 nm) using a ViewLux plate reader (PerkinElmer).

SMILES	cytotoxicity at 46 µM (HepG2 cells; Homo sapiens, HepG2 cells, 72 h, AlamarBlue, up to 46 µM, read-out: HepG2, IC50 (dash = less than 25% cytotoxicity))	IC50 ([1]; Plasmodium falciparum)	Asexual/Gametocyte [1]	number of human kinases interacting (Interactions Mapped, 468 Assays Tested) (468 human kinases; 10 μM)	S-Score(35) (468 human kinases; 10 µM, 468 assays)	binding to human kinases, in words (468 human kinases; 10 µM, 468 human kinases)	IC50 ([2]; Plasmodium falciparum)	HepG2, IC50 (dash = less than 25% cytotoxicity) (HepG2 cells; HepG2 cells, 72 h, AlamarBlue, up to 46 µM)	IC50 [1]	IC50 [2]	IC50 (HepG2 cells; HepG2 cells, 72 h, AlamarBlue, titration 0.001 to 46 µM, mean ± SD, n = 3)	maximum response, HepG2 cytotoxicity (HepG2 cells; titration 0.001 to 46 µM)
CCOCc1cc(CN2CCN(c3ccccc3OC)CC2)c(O)c2ncccc12 [NCGC00114940]	< 25%	0.62 ± 0.04 µM	1.87	0	0	did not affect the activity of any	1.16 ± 0.57 µM	–	–	–	–	–
Cc1cc(Nc2cc(F)ccc2C)nc(-n2nc(C)cc2C)n1 [NCGC00134156]	–	–	1.68	–	–	–	–	– (Indicates compounds with less than 25% cytotoxicity at up to 46 µM)	2.1 ± 0.73 µM	3.53 ± 0.27 µM	–	–
CC(C)(C)OC(=O)N1CCC(c2c(C(=O)NCCN3CCC(Cc4ccccc4)CC3)cnn2-c2cccc(Cl)c2)CC1 [NCGC00126892]	–	–	0.24	–	–	–	–	–	31.3 ± 12.8 µM	7.49 ± 0.86 µM	34.4 µM	93.0%
